Patent publication US20060069132A1, “Azolecarboxamide herbicides” (priority 2004, published 2006)

Assays:
goosegrass = assay: Test E pre-/postemergence herbicide test; assay type: in vivo, Eleusine indica; details: Preemergence
Method in brief: (§1)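 Seeds were planted and treated preemergence with test chemicals in a non-phytotoxic solvent mixture containing surfactant; plants at 2 to 18 cm (1- to 4-leaf stage) received postemergence applications of the same formulation. After 12 to 14 days in a greenhouse, injury was visually rated against untreated controls on a 0 to 100 scale.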

green foxtail [1] = assay: Test C postemergence herbicide test; assay type: in vivo, Setaria viridis
Method in brief: (§2)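 Scoring by eye, 12–14 days post-treatment, greenhouse-held plants vs. controls; 0 no effect, 100 complete control. Sprayed at 1–4 leaves (2–18 cm); paddy barnyardgrass at 2 leaves, flooded.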

southern sandbur = assay: Test E pre-/postemergence herbicide test; assay type: in vivo, Cenchrus echinatus; details: Preemergence
Method in brief: as §1

common ragweed = assay: Test E pre-/postemergence herbicide test; assay type: in vivo, Ambrosia elatior; details: Preemergence
Method in brief: as §1

annual bluegrass = assay: Test E pre-/postemergence herbicide test; assay type: in vivo, Poa annua; details: Preemergence
Method in brief: as §1

bipinnate beggarticks = assay: Test E pre-/postemergence herbicide test; assay type: in vivo, Bidens bipinnata; details: Preemergence
Method in brief: as §1

prickly sida = assay: Test E pre-/postemergence herbicide test; assay type: in vivo, Sida spinosa; details: Preemergence
Method in brief: as §1

large crabgrass = assay: Test E pre-/postemergence herbicide test; assay type: in vivo, Digitaria sanguinalis; details: Preemergence
Method in brief: as §1

green foxtail [2] = assay: Test E pre-/postemergence herbicide test; assay type: in vivo, Setaria viridis; details: Preemergence
Method in brief: as §1

winter barley = assay: Test C postemergence herbicide test; assay type: in vivo, Hordeum vulgare
Method in brief: as §2

dallisgrass = assay: Test E pre-/postemergence herbicide test; assay type: in vivo, Paspalum dilatatum; details: Preemergence
Method in brief: as §1

canarygrass = assay: Test C postemergence herbicide test; assay type: in vivo, Phalaris minor
Method in brief: as §2

johnsongrass = assay: Test E pre-/postemergence herbicide test; assay type: in vivo, Sorghum halepense; details: Preemergence
Method in brief: as §1

[3] = 250 g ai/ha, scale 0 (no effect) to 100 (complete control)
[4] = 500 g ai/ha, scale 0 (no effect) to 100 (complete control)
[5] = Postemergence, 250 g ai/ha, scale 0 to 100, 0 no effect, 100 complete control
[6] = postemergence, 125 g ai/ha, scale 0 to 100
[7] = postemergence, 62 g ai/ha, scale 0 to 100
[8] = Postemergence, 125 g ai/ha, scale 0 to 100, 0 no effect, 100 complete control
[9] = postemergence, 31 g ai/ha, scale 0 to 100
[10] = postemergence, 62 g ai/ha, scale 0 to 100 (0 no effect, 100 complete control)
[11] = Postemergence, 500 g ai/ha, scale 0 to 100, 0 no effect, 100 complete control

CCc1nn(C(C)(C)C)nc1C(=O)Nc1cccc(C(=O)N(C)CC)c1 [Compound 384]
35: Plant response rating, Barley, Winter (winter barley; [8]) | Plant response rating, Barley, Winter (winter barley; [5]) | Plant response rating, Canarygrass (canarygrass; [6])
20: Plant response rating, Canarygrass (canarygrass; [9])
65: Plant response rating, Foxtail, Green (green foxtail [1]; [5])
100: Plant response rating, Sandbur (southern sandbur; [4]) | Plant response rating, Beggarticks, Bip. (bipinnate beggarticks; [3]) | Plant response rating, Crabgrass, Large (large crabgrass; 125 g ai/ha, scale 0 to 100) | Plant response rating, Crabgrass, Large (large crabgrass; [3]) | Plant response rating, Crabgrass, Large (large crabgrass; [4])
60: Plant response rating, Goosegrass (goosegrass; 62 g ai/ha, scale 0 to 100) | Plant response rating, Foxtail, Green (green foxtail [1]; [6]) | Plant response rating, Foxtail, Green (green foxtail [1]; [7]) | Plant response rating, Sandbur (southern sandbur; 125 g ai/ha, scale 0 to 100) | Plant response rating, Prickly Sida (prickly sida; 62 g ai/ha, scale 0 to 100) | Plant response rating, Prickly Sida (prickly sida; [3])
85: Plant response rating, Goosegrass (goosegrass; [3]) | Plant response rating, Johnsongrass (johnsongrass; [4])
80: Plant response rating, Goosegrass (goosegrass; 125 g ai/ha, scale 0 to 100) | Plant response rating, Bluegrass (annual bluegrass; [3]) | Plant response rating, Johnsongrass (johnsongrass; [3])
40: Plant response rating, Ragweed (common ragweed; [3]) | Plant response rating, Ragweed (common ragweed; [4]) | Plant response rating, Foxtail, Green (green foxtail [2]; [3]) | Plant response rating, Canarygrass (canarygrass; [5]) | Plant response rating, Johnsongrass (johnsongrass; 62 g ai/ha, scale 0 to 100)
30: Plant response rating, Canarygrass (canarygrass; [7])
95: Plant response rating, Goosegrass (goosegrass; [4]) | Plant response rating, Bluegrass (annual bluegrass; [4]) | Plant response rating, Prickly Sida (prickly sida; [4]) | Plant response rating, Foxtail, Green (green foxtail [2]; [4])
70: Plant response rating, Sandbur (southern sandbur; [3]) | Plant response rating, Dallisgrass (dallisgrass; 125 g ai/ha, scale 0 to 100)
10: Plant response rating, Sandbur (southern sandbur; 62 g ai/ha, scale 0 to 100) | Plant response rating, Ragweed (common ragweed; 125 g ai/ha, scale 0 to 100) | Plant response rating, Beggarticks, Bip. (bipinnate beggarticks; 62 g ai/ha, scale 0 to 100) | Plant response rating, Foxtail, Green (green foxtail [2]; 62 g ai/ha, scale 0 to 100) | Plant response rating, Barley, Winter (winter barley; [10]) | Plant response rating, Dallisgrass (dallisgrass; 62 g ai/ha, scale 0 to 100)
0: Plant response rating, Ragweed (common ragweed; 62 g ai/ha, scale 0 to 100) | Plant response rating, Barley, Winter (winter barley; [9])
75: Plant response rating, Bluegrass (annual bluegrass; 125 g ai/ha, scale 0 to 100) | Plant response rating, Dallisgrass (dallisgrass; [3]) | Plant response rating, Johnsongrass (johnsongrass; 125 g ai/ha, scale 0 to 100)
50: Plant response rating, Bluegrass (annual bluegrass; 62 g ai/ha, scale 0 to 100)
90: Plant response rating, Crabgrass, Large (large crabgrass; 62 g ai/ha, scale 0 to 100) | Plant response rating, Dallisgrass (dallisgrass; [4])

CCNC(=O)c1cccc(NC(=O)c2nn(C(C)(C)C)nc2C)c1 [Compound 392]
100: Plant response rating, Ragweed (common ragweed; [4]) | Plant response rating, Bluegrass (annual bluegrass; [4]) | Plant response rating, Beggarticks, Bip. (bipinnate beggarticks; [4]) | Plant response rating, Prickly Sida (prickly sida; [4]) | Plant response rating, Dallisgrass (dallisgrass; [4])
30: Plant response rating, Ragweed (common ragweed; 62 g ai/ha, scale 0 to 100) | Plant response rating, Ragweed (common ragweed; 125 g ai/ha, scale 0 to 100) | Plant response rating, Johnsongrass (johnsongrass; 125 g ai/ha, scale 0 to 100)
50: Plant response rating, Canarygrass (canarygrass; [5])
0: Plant response rating, Sandbur (southern sandbur; 62 g ai/ha, scale 0 to 100)
40: Plant response rating, Canarygrass (canarygrass; [7])
70: Plant response rating, Goosegrass (goosegrass; 125 g ai/ha, scale 0 to 100) | Plant response rating, Foxtail, Green (green foxtail [1]; [11]) | Plant response rating, Sandbur (southern sandbur; [4]) | Plant response rating, Ragweed (common ragweed; [3]) | Plant response rating, Foxtail, Green (green foxtail [2]; [3])
10: Plant response rating, Sandbur (southern sandbur; 125 g ai/ha, scale 0 to 100) | Plant response rating, Bluegrass (annual bluegrass; 62 g ai/ha, scale 0 to 100) | Plant response rating, Beggarticks, Bip. (bipinnate beggarticks; 125 g ai/ha, scale 0 to 100) | Plant response rating, Foxtail, Green (green foxtail [2]; 62 g ai/ha, scale 0 to 100) | Plant response rating, Dallisgrass (dallisgrass; 62 g ai/ha, scale 0 to 100) | Plant response rating, Johnsongrass (johnsongrass; 62 g ai/ha, scale 0 to 100)
35: Barley, Winter plant response rating (winter barley; Postemergence, 500 g ai/ha, scale 0 to 100) | Plant response rating, Barley, Winter (winter barley; [8]) | Plant response rating, Barley, Winter (winter barley; [5]) | Plant response rating, Barley, Winter (winter barley; [10])
85: Plant response rating, Goosegrass (goosegrass; [3])
60: Plant response rating, Foxtail, Green (green foxtail [1]; [6]) | Plant response rating, Foxtail, Green (green foxtail [1]; [7]) | Plant response rating, Dallisgrass (dallisgrass; 125 g ai/ha, scale 0 to 100)
65: Plant response rating, Foxtail, Green (green foxtail [1]; [5]) | Plant response rating, Canarygrass (canarygrass; [11])
45: Plant response rating, Canarygrass (canarygrass; [6])
20: Plant response rating, Goosegrass (goosegrass; 62 g ai/ha, scale 0 to 100) | Plant response rating, Sandbur (southern sandbur; [3])
95: Plant response rating, Goosegrass (goosegrass; [4]) | Plant response rating, Crabgrass, Large (large crabgrass; 125 g ai/ha, scale 0 to 100) | Plant response rating, Crabgrass, Large (large crabgrass; [3]) | Plant response rating, Crabgrass, Large (large crabgrass; [4]) | Plant response rating, Foxtail, Green (green foxtail [2]; [4]) | Plant response rating, Johnsongrass (johnsongrass; [4])
80: Plant response rating, Bluegrass (annual bluegrass; 125 g ai/ha, scale 0 to 100) | Plant response rating, Bluegrass (annual bluegrass; [3]) | Plant response rating, Beggarticks, Bip. (bipinnate beggarticks; [3])
90: Plant response rating, Johnsongrass (johnsongrass; [3])
75: Plant response rating, Prickly Sida (prickly sida; [3]) | Plant response rating, Crabgrass, Large (large crabgrass; 62 g ai/ha, scale 0 to 100) | Plant response rating, Dallisgrass (dallisgrass; [3])

CCc1nn(C(C)(C)C)nc1C(=O)Nc1cccc(C(=S)N(C)C)c1 [Compound 395]
20: Plant response rating, Ragweed (common ragweed; 125 g ai/ha, scale 0 to 100)
10: Plant response rating, Ragweed (common ragweed; 62 g ai/ha, scale 0 to 100) | Plant response rating, Foxtail, Green (green foxtail [2]; 62 g ai/ha, scale 0 to 100)
40: Plant response rating, Beggarticks, Bip. (bipinnate beggarticks; 62 g ai/ha, scale 0 to 100) | Plant response rating, Foxtail, Green (green foxtail [2]; 125 g ai/ha, scale 0 to 100)
60: Plant response rating, Sandbur (southern sandbur; 125 g ai/ha, scale 0 to 100) | Plant response rating, Ragweed (common ragweed; [3]) | Plant response rating, Ragweed (common ragweed; [4]) | Plant response rating, Prickly Sida (prickly sida; 62 g ai/ha, scale 0 to 100)
50: Plant response rating, Sandbur (southern sandbur; 62 g ai/ha, scale 0 to 100) | Plant response rating, Dallisgrass (dallisgrass; 62 g ai/ha, scale 0 to 100)
80: Plant response rating, Goosegrass (goosegrass; 62 g ai/ha, scale 0 to 100) | Plant response rating, Goosegrass (goosegrass; 125 g ai/ha, scale 0 to 100) | Plant response rating, Sandbur (southern sandbur; [3]) | Plant response rating, Sandbur (southern sandbur; [4]) | Plant response rating, Bluegrass (annual bluegrass; 125 g ai/ha, scale 0 to 100) | Plant response rating, Crabgrass, Large (large crabgrass; 62 g ai/ha, scale 0 to 100) | Plant response rating, Foxtail, Green (green foxtail [2]; [3]) | Plant response rating, Johnsongrass (johnsongrass; 125 g ai/ha, scale 0 to 100)
95: Plant response rating, Goosegrass (goosegrass; [4]) | Plant response rating, Bluegrass (annual bluegrass; [3]) | Plant response rating, Bluegrass (annual bluegrass; [4]) | Plant response rating, Prickly Sida (prickly sida; 125 g ai/ha, scale 0 to 100) | Plant response rating, Prickly Sida (prickly sida; [3]) | Plant response rating, Prickly Sida (prickly sida; [4])
90: Plant response rating, Goosegrass (goosegrass; [3]) | Plant response rating, Foxtail, Green (green foxtail [2]; [4]) | Plant response rating, Dallisgrass (dallisgrass; [3]) | Plant response rating, Dallisgrass (dallisgrass; [4]) | Plant response rating, Johnsongrass (johnsongrass; [3]) | Plant response rating, Johnsongrass (johnsongrass; [4])
30: Plant response rating, Bluegrass (annual bluegrass; 62 g ai/ha, scale 0 to 100) | Plant response rating, Johnsongrass (johnsongrass; 62 g ai/ha, scale 0 to 100)
70: Plant response rating, Dallisgrass (dallisgrass; 125 g ai/ha, scale 0 to 100)
100: Plant response rating, Beggarticks, Bip. (bipinnate beggarticks; 125 g ai/ha, scale 0 to 100) | Plant response rating, Beggarticks, Bip. (bipinnate beggarticks; [3]) | Plant response rating, Beggarticks, Bip. (bipinnate beggarticks; [4]) | Plant response rating, Crabgrass, Large (large crabgrass; 125 g ai/ha, scale 0 to 100) | Plant response rating, Crabgrass, Large (large crabgrass; [3]) | Plant response rating, Crabgrass, Large (large crabgrass; [4])
